# Test system: male Sprague Dawley rats
# Assay: Telemetric sleep/wake recording at baseline and after inescapable tail shock stress, following early life diet (P21-P51)
# Assay type: in vivo, rat
# Details: mean ± SEM
# Description: The aim of this study was to investigate the extent to which early life dietary oligosaccharides and/or polydextrose (PDX+GOS) modulate sleep and protect sleep architecture following stress.
# Timed-pregnant female Sprague Dawley rats were purchased from Charles River Laboratories International, Inc., (Hollister, CA and Canada). Male pups were weaned at postnatal day 21 (P21) and randomised into one of five treatment groups (see Table 6 below). All rats were housed in a temperature-controlled recording room under a 12 hour light: dark cycle with food and water available ad libitum. Environmental conditions were regulated, and room temperature (24±2° C.), humidity (50±20% relative humidity), and lighting were monitored and recorded. Animals were inspected daily.
# All experimenters were blind to type of diet administered to each group. The diets were formulated by Mead Johnson Nutrition (MJN, Evansville IN) based on AlN-93G specifications to be isocaloric and have similar carbohydrate, protein, fat, vitamin and mineral levels. Experimental diets contained 7.0 g/kg galactooligosaccharides (GOS), 7.0 g/kg polydextrose (PDX) and/or 2.2 g/kg sialyllactose (SL). Diets were produced by Envigo (Indianapolis, IN), and ingredients were supplied by: PDX (Danisco, Terre Haute, IN), GOS (Friesland Campina, Zwolle, The Netherlands) and SL (SAL-10; Arla Foods Ingredients, Aarhus, Denmark).
# A total of n=105 male Sprague Dawley rats were used in this study with a subset of animals (n=40) used for sleep/wake analysis. Upon weaning (P21), rats were randomised into one of five treatment groups, based upon diet and exposure to a stressor, as follows:
# The experimental protocol consisted of two phases a diet manipulation phase and a sleep-stressor phase. During the diet manipulation phase, rat weanlings were randomised to either the control diet or one of the three formulated diets. Rats were provided these diets from age P21 to P51, after which all animals were given standard chow. During this diet-manipulation phase, body weights were recorded twice per week and food consumption determined for weekly intervals.
# The second phase of the protocol consisted of telemetric recordings, exposure to stressor, and behavioural assessment. Telemeters were implanted on P64 and undisturbed baseline recordings obtained on P84.
# Rats in groups 2 to 5 were exposed to inescapable shock stress (uncontrollable stress paradigm) on P85 using previously published protocols (Greenwood et al., Behav Brain Res. 2012 Aug. 1; 233(2): 314-321). Briefly, rats were restrained in Plexiglass tubes and received ~100, 5 s tail shocks (1.5 mA) on a […] variable-interval schedule. Stress protocols were conducted during the beginning of the light period. After the end of the stress protocol, rats were returned to their home cages. Home-cage control animals (no stress) remained undisturbed during this period.
# [1] = Dark period (ZT13-24), Baseline
# [2] = Dark period (ZT13-24), Post-stress
# [3] = Light period (ZT5-12), Baseline
# [4] = Light period (ZT5-12), Post-stress
substance,measurement,setting,value
sialyllactose [SL],NREMS bout duration,[1],1.3 ± 0.1 min
same,NREMS bouts,[1],11.9 ± 1.1 number/h
same,NREMS duration,[1],30.1 ± 3.0 % recording time
same,REMS bout duration,[1],0.9 ± 0.1 min
same,REMS bouts,[1],2.8 ± 0.4 number/h
same,REMS duration,[1],6.0 ± 0.9 % recording time
same,Wake bout duration,[1],10.9 ± 2.2 min
same,Wake bouts,[1],8.3 ± 0.6 number/h
same,Wake duration,[1],63.9 ± 3.8 % recording time
same,NREMS bout duration,[2],1.5 ± 0.1 min
same,NREMS bouts,[2],17.7 ± 1.3 number/h
same,NREMS duration,[2],[43.7 ± 1.7**] % recording time
same,REMS bout duration,[2],[1.3 ± 0.1*] min
same,REMS bouts,[2],[5.5 ± 0.5**] number/h
same,REMS duration,[2],[12.3 ± 1.0**] % recording time
same,Wake bout duration,[2],4.1 ± 0.8 min
same,Wake bouts,[2],10.4 ± 1.1 number/h
same,Wake duration,[2],[43.9 ± 2.4**] % recording time
same,NREMS bout duration,[3],1.5 ± 0.1 min
same,NREMS bouts,[3],20.1 ± 1.5 number/h
same,NREMS duration,[3],51.0 ± 3.1 % recording time
same,REMS bout duration,[3],1.2 ± 0.1 min
same,REMS bouts,[3],5.3 ± 0.6 number/h
same,REMS duration,[3],12.6 ± 1.3 % recording time
same,Wake bout duration,[3],3.5 ± 1.1 min
same,Wake bouts,[3],10.1 ± 0.6 number/h
same,Wake duration,[3],36.4 ± 4.2 % recording time
same,NREMS bout duration,[4],2.1 ± 0.1 min
same,NREMS bouts,[4],16.8 ± 1.1 number/h
same,NREMS duration,[4],56.1 ± 2.1 % recording time
same,REMS bout duration,[4],1.6 ± 0.0 min
same,REMS bouts,[4],5.3 ± 0.7 number/h
same,REMS duration,[4],14.4 ± 1.7 % recording time
same,Wake bout duration,[4],3.0 ± 0.7 min
same,Wake bouts,[4],7.8 ± 0.6 number/h
same,Wake duration,[4],29.5 ± 3.5 % recording time
